From US9096544B2, “Therapeutic compounds” (Wayne State University, priority 2009, dated 2015)

How the values were obtained:
Type in all cases: cell-based
[1] = test system: pancreatic cancer stem cells (CD44+/CD24+ cells obtained from PANC-1, Capan-2 and MiaPaCa-2 cells); experiment: Test J: spheroid formation by CD44+/CD24+ pancreatic cancer stem cells
Procedure: (§1) Apoptosis and Growth Inhibition of Pancreatic Cancer Stem Cells (Obtained from PANC-1, Capan-2 and MiaPaCa-2 Cells) by Compound 16 and 3-Cl-AHPC.
Cells were grown to 70-80% confluence and then trypsinised and washed with sorting buffer (1×PBS, 5% FCS). The cells were resuspended with […] sorting buffer and incubated with 15-20 μl anti-CD24-FITC, anti-CD44-PE primary antibodies for 30 min at ice. The cells were washed and resuspended in 500 μl of sorting buffer and sorted using FACSAria system (BD Immunocytochemistry Systems, Franklin lakes, NJ).
(§2) The sorted CD44^+/CD24^+ cells were suspended in serum-free stem cell medium containing DMEM/F12 (1:1) supplemented with B27 (Life Technologies, Gaithersburg, Md.), 20 ng/ml EGF (Biomol International, Plymouth, Pa.)), 20 ng/ml fibroblast growth factor (Biomol International, Plymouth, Pa.), and 100 μg/ml gentamycin. Approximately 150-200 cells per well were seeded in an ultra low-attachment 96-well plate (Corning Inc, Lowell, Mass.). 3-Cl-AHPC and compound 16 were added the day after cells were plated or after 7 days of spheroid formation. Spheriods were photographed and measured utilizing a Olympus microscope (OLYMPUS CKX41) and Olympus microscope digital camera with DP2-BSW software (Olympus soft imaging solutions GmbH, Germany).

[2] = test system: pancreatic cancer stem cell spheroids; experiment: Test J: disaggregation of and apoptosis in pancreatic cancer stem cell spheroids; conditions: for effect on formed spheroids: added to pancreatic cancer stem cell spheroids; for exposure resulting in disaggregation of the spheroid and induction of apoptosis: as little as
Procedure: as §1, §2
DMSO (vehicle) and 3-Cl-AHPC treated spheroids were centrifuged at 1000 rpm for 5 minutes, washed in PBS, 22% bovine serum albumin added to the spheroids pellet, 95% ethanol placed on the spheroids pellet and the pellet allowed to harden for 30 minutes. Neutral buffered formalin (10%) was added to fix the cell pellet for at least 2 h and the spheroids were then placed in a labeled plastic tissue embedding cassette containing 10% neutral buffered formalin overnight. The spheroids were processed in a Sakura Tissue-Tek Processor for overnight dehydration in graded ethanol, clearing in xylene and infiltration with paraffin. The spheroids were placed in a 4 μm embedding mold for final paraffin embedding.
The TUNEL assay was performed using the In Situ Cell Death Detection kit, POD (Roche-Applied-Science, Mannheim, Germany) according to the manufacturer's instructions.
The paraffin embedding spheroids were deparaffinized and rehydrated, then tissues sections were incubated with proteinase K solution (10-20 μg/ml) for 30 min. Tissues were then rinsed twice in PBS and reacted with 50 μl of the TUNEL reaction mixture at room temperature for 60 min in a dark, humidified chamber. Sections were again rinsed in PBS and incubated for 30 min with 50 μl of the Converter-POD (RocheApplied-Science) and followed by 3-amino-9-ethylcarbazole (AEC). Sections were then counterstained with hematoxylin. As negative controls, corresponding sections were treated in the same way without terminal, deoxynucleotidyl transferase.

PANC-1 cells = experiment: Test I: apoptosis of PANC-1 pancreatic cancer cells (Annexin V-FITC/PI); conditions: 1 μM, 48 h
Procedure: (§3) Pancreatic cancer cell lines (COLO357, PANC-1, Capan-2, AsPc-1 cells and MiaPaCa-2 cells obtained from American Type Culture Collection; ATCC, Rockville, Md.) were treated with 1 μM 3-Cl-AHPC and compound 16 for various times. Apoptosis in cells were analyzed by flow cytometry using Annexin V-FITC binding together with propidium iodide (PI) staining (Annexin V-FITC apoptosis Detection Kit 1, BD Biosciences, San Diego, Calif.). Data acquisition was done on a FACS Calibur flow cytometer (BD) and analyzed with CellQuest software (BD Biosciences). 3-Cl-AHPC and compound 16 mediated inhibition of cell growth were determined by 3-(4,5-dimethylthiazol-2-yl)-2,5-diphenyltetrazolium bromide (MTT) assay. The cells were seeded on 96-well plates at a density of 4×10^4 cells/well in a volume of 200 μl culture medium. 1 μM AHP3 and 3-Cl-AHPC in DMSO (final concentration 0.1%) were added to the cells for various times. […] After discarding the medium, MTT precipitates were solubilized with 200 μl DMSO and the plates read on a BioTeK Synergy HT (BioTeK Instrument Inc., Vermont) at an absorbance 570 nm. […] The spheroids were stained with acridine orange/ethidium bromide staining and immediately visualized and photographed with fluorescence microscope (OLYMPUS CKX41). […] Then spheroids were visualized and photographed with a fluorescence microscope.

caspase-3 = experiment: Caspase-3 activation and cleavage in AML cells; conditions: FFMA-AML and TF(vSRC) cells; 1 μM; lysates
Procedure: FIG. 4 illustrates 3-Cl-AHPC and compound 16-mediated caspase-3 activation and cleavage of caspase-3. A) Activation of caspase-3 in FFMA-AML and TF(vSRC) cells following exposure to 1 μM 3-Cl-AHPC and compound 16 for varying times. B) Generation of the caspase-3 (17 kDa) fragment and caspase-3 protein levels (α-tubulin used as loading control). Columns represent mean of three independent experiments. […] (p value is <0.01 as determined by t test).
To further document 3-Cl-AHPC and compound 16-mediated apoptosis in the FFMA-AML and TF(v-SRC) cells, cells were exposed to 1 μM 3-Cl-AHPC or compound 16 for varying times, and then annexin V-FITC binding assessed using flow cytometry.

MiaPaCa-2 cells = experiment: Test I: growth inhibition of MiaPaCa-2 cells (MTT); conditions: 1 μM
Procedure: as §3

SMILES: O=C(O)C=Cc1ccc(-c2ccc(O)c(C34CC5CC(CC(C5)C3)C4)c2)c(Cl)c1 [Compound 3-Cl-AHPC, 4-[3-(1-adamantyl)-4-hydroxyphenyl]-3-chlorocinnamic acid, reference compound]
- spheroid formation by CD24+/CD44+ cells [1]: inhibited their ability to form spheroids
- effect on formed spheroids [2]: resulted in their disaggregation and the induction of apoptosis in the cells comprising the spheroid
- exposure resulting in disaggregation of the spheroid and induction of apoptosis [2]: 500 nM
- cells in which induction of apoptosis was noted (PANC-1 cells): 50%
- caspase-3 activation (17-kDa cleaved caspase-3, caspase-3 activity) (caspase-3): induced caspase-3 activation
- inhibition of growth (MiaPaCa-2 cells): significant inhibition of growth

SMILES: O=C(O)/C=C/c1cnc(-c2ccc(O)c(C34CC5CC(CC(C5)C3)C4)c2)nc1 [Compound 16, (E)-3-[2-(3-(1-Adamantyl)-4-hydroxyphenyl)-5-pyrimidinyl]-2-propenoic acid]
- spheroid formation by CD24+/CD44+ cells [1]: inhibited their ability to form spheroids
- effect on formed spheroids [2]: resulted in their disaggregation and the induction of apoptosis in the cells comprising the spheroid
- exposure resulting in disaggregation of the spheroid and induction of apoptosis [2]: 500 nM
- cells in which induction of apoptosis was noted (PANC-1 cells): 50%
- caspase-3 activation (17-kDa cleaved caspase-3, caspase-3 activity) (caspase-3): induced caspase-3 activation
- inhibition of growth (MiaPaCa-2 cells): significant inhibition of growth
